Assay results from the NIST ThermoML archive (doi:10.1016/j.jct.2015.09.020).
± gives the expanded uncertainty stated by the source.

Columns and labels:
[1] = 278.15 K, 101.3 kPa, Liquid
[2] = mn = molality of the nth substance listed, in mol/kg; conditions: 278.15 K, 101.3 kPa, Liquid, m2 = 0; for speed of sound: Frequency=2 MHz, Linear variable-path acoustic interferometer; for mass density: Pycnometric method

| speed of sound ([1]; Frequency=2 MHz, Linear variable-path acoustic interferometer) | mass density ([1]; Pycnometric method) | speed of sound [2] | mass density [2] | SMILES |
| --- | --- | --- | --- | --- |
| 1426.2 ± 1.7 m/s | 999.96 ± 0.28 kg/m3 | – | – | O [water] |
| – | – | 1426.2 ± 1.7 m/s | 999.96 ± 0.28 kg/m3 | O [water] + Cl.NCC(=O)O |
| – | – | 1426.2 ± 1.7 m/s | 999.96 ± 0.28 kg/m3 | O [water] + NCCCC(=O)O |
| – | – | 1426.2 ± 1.7 m/s | 999.96 ± 0.29 kg/m3 | O [water] + N[C@@H](CCC(=O)[O-])C(=O)O.[Na+] |
